In the NIST ThermoML archive (doi:10.1021/je800150h):

Assay: xn = mol fraction of the nth substance listed
Conditions: 101 kPa, Liquid

CCO [ethanol] + O
Conditions | mass density [kg/m3] | viscosity [mPa·s]
268.1 K, x2 = 0.1 | 824.9 | 2.307
268.1 K, x2 = 0.2 | 838.2 | 2.805
268.1 K, x2 = 0.3 | 852.2 | 3.345
268.1 K, x2 = 0.4 | 867.7 | 3.991
268.1 K, x2 = 0.5 | 886.6 | 4.829
268.1 K, x2 = 0.6 | 908.1 | 5.931
268.1 K, x2 = 0.7 | 931.6 | 7.172
268.1 K, x2 = 0.8 | 951 | 7.549
268.1 K, x2 = 0.9 | 977.3 | 6.025
273.1 K, x2 = 0.1 | 820.3 | 2.059
273.1 K, x2 = 0.2 | 833.7 | 2.491
273.1 K, x2 = 0.3 | 847.7 | 2.938
273.1 K, x2 = 0.4 | 863.4 | 3.451
273.1 K, x2 = 0.5 | 882.1 | 4.123
273.1 K, x2 = 0.6 | 903.5 | 4.978
273.1 K, x2 = 0.7 | 927.1 | 5.947
273.1 K, x2 = 0.8 | 948 | 6.169
273.1 K, x2 = 0.9 | 975.6 | 4.997
278.1 K, x2 = 0.1 | 815.9 | 1.837
278.1 K, x2 = 0.2 | 829 | 2.21
278.1 K, x2 = 0.3 | 842.9 | 2.579
278.1 K, x2 = 0.4 | 858.8 | 2.98
278.1 K, x2 = 0.5 | 877.7 | 3.518
278.1 K, x2 = 0.6 | 899.3 | 4.176
278.1 K, x2 = 0.7 | 922.7 | 4.933
278.1 K, x2 = 0.8 | 945 | 5.037
278.1 K, x2 = 0.9 | 973.2 | 4.089
283.1 K, x2 = 0.1 | 811.4 | 1.639
283.1 K, x2 = 0.2 | 824.7 | 1.959
283.1 K, x2 = 0.3 | 838.5 | 2.26
283.1 K, x2 = 0.4 | 854.1 | 2.57
283.1 K, x2 = 0.5 | 872.8 | 2.995
283.1 K, x2 = 0.6 | 894.6 | 3.499
283.1 K, x2 = 0.7 | 918.7 | 4.093
283.1 K, x2 = 0.8 | 941.4 | 4.102
283.1 K, x2 = 0.9 | 970.8 | 3.34
288.15 K, x2 = 0.1 | 806.9 | 1.51
288.15 K, x2 = 0.2 | 820.1 | 1.721
288.15 K, x2 = 0.3 | 833.9 | 1.98
288.15 K, x2 = 0.4 | 849.5 | 2.212
288.15 K, x2 = 0.5 | 868.5 | 2.539
288.15 K, x2 = 0.6 | 889.6 | 2.922
288.15 K, x2 = 0.7 | 914.5 | 3.372
288.15 K, x2 = 0.8 | 938 | 3.433
288.15 K, x2 = 0.9 | 967.3 | 2.706
293.15 K, x2 = 0.1 | 802.1 | 1.355
293.15 K, x2 = 0.2 | 815.6 | 1.515
293.15 K, x2 = 0.3 | 829.4 | 1.715
293.15 K, x2 = 0.4 | 845 | 1.901
293.15 K, x2 = 0.5 | 863.8 | 2.153
293.15 K, x2 = 0.6 | 885.1 | 2.463
293.15 K, x2 = 0.7 | 909.9 | 2.842
293.15 K, x2 = 0.8 | 934.6 | 2.841
293.15 K, x2 = 0.9 | 963.7 | 2.268
298.15 K, x2 = 0.1 | 797.7 | 1.249
298.15 K, x2 = 0.2 | 811 | 1.353
298.15 K, x2 = 0.3 | 825.1 | 1.513
298.15 K, x2 = 0.4 | 840.6 | 1.651
298.15 K, x2 = 0.5 | 859.2 | 1.84
298.15 K, x2 = 0.6 | 880.6 | 2.089
298.15 K, x2 = 0.7 | 905.3 | 2.35
298.15 K, x2 = 0.8 | 931.3 | 2.45
298.15 K, x2 = 0.9 | 960.3 | 1.92
303.15 K, x2 = 0.1 | 793 | 1.156
303.15 K, x2 = 0.2 | 806 | 1.218
303.15 K, x2 = 0.3 | 820.6 | 1.356
303.15 K, x2 = 0.4 | 836.1 | 1.446
303.15 K, x2 = 0.5 | 854.8 | 1.598
303.15 K, x2 = 0.6 | 876.1 | 1.812
303.15 K, x2 = 0.7 | 901 | 2.04
303.15 K, x2 = 0.8 | 927.6 | 2.101
303.15 K, x2 = 0.9 | 956.2 | 1.656
308.15 K, x2 = 0.1 | 788.2 | 1.067
308.15 K, x2 = 0.2 | 801.4 | 1.11
308.15 K, x2 = 0.3 | 816 | 1.215
308.15 K, x2 = 0.4 | 831.4 | 1.296
308.15 K, x2 = 0.5 | 850.1 | 1.407
308.15 K, x2 = 0.6 | 871.4 | 1.582
308.15 K, x2 = 0.7 | 896.5 | 1.78
308.15 K, x2 = 0.8 | 923.8 | 1.772
308.15 K, x2 = 0.9 | 952.7 | 1.448
313.15 K, x2 = 0.1 | 783.6 | 0.92
313.15 K, x2 = 0.2 | 796.8 | 1.004
313.15 K, x2 = 0.3 | 811.1 | 1.096
313.15 K, x2 = 0.4 | 826.9 | 1.149
313.15 K, x2 = 0.5 | 845.2 | 1.27
313.15 K, x2 = 0.6 | 866.8 | 1.43
313.15 K, x2 = 0.7 | 892 | 1.56
313.15 K, x2 = 0.8 | 919.5 | 1.557
313.15 K, x2 = 0.9 | 949 | 1.271
318.15 K, x2 = 0.1 | 779 | 0.86
318.15 K, x2 = 0.2 | 792.2 | 0.925
318.15 K, x2 = 0.3 | 806.6 | 0.998
318.15 K, x2 = 0.4 | 822.4 | 1.039
318.15 K, x2 = 0.5 | 840.5 | 1.14
318.15 K, x2 = 0.6 | 862.1 | 1.27
318.15 K, x2 = 0.7 | 887.4 | 1.371
318.15 K, x2 = 0.8 | 915.5 | 1.369
318.15 K, x2 = 0.9 | 945.5 | 1.121
323.15 K, x2 = 0.1 | 774.3 | 0.76
323.15 K, x2 = 0.2 | 787.5 | 0.839
323.15 K, x2 = 0.3 | 801.9 | 0.902
323.15 K, x2 = 0.4 | 817.7 | 0.932
323.15 K, x2 = 0.5 | 835.8 | 1.02
323.15 K, x2 = 0.6 | 857.3 | 1.14
323.15 K, x2 = 0.7 | 883 | 1.17
323.15 K, x2 = 0.8 | 911.2 | 1.202
323.15 K, x2 = 0.9 | 942 | 0.975
